ChEMBL document CHEMBL1129112, “Antioxidant and cholesterol lowering properties of 2,6-DI-t-butyl-4-[(dimethylphenylsilyl)methyloxy]phenol and derivatives: A new class of anti-atherogenic compounds” (1996)

Tests used:
Assay type in all cases: functional
Oryctolagus cuniculus [1] = organism: Oryctolagus cuniculus; assay: Total cholesterol present in New Zealand white rabbits fed with control diet (100 g/day) for seven days
Oryctolagus cuniculus [2] = assay: High density lipoprotein (HDL) percent control of cholesterol after administration in rabbits.; design: concentration or dose not given beside the values
Oryctolagus cuniculus [3] = assay: Low density lipoprotein (LDL) percent control of cholesterol after administration in rabbits.; design: concentration or dose not given beside the values
Oryctolagus cuniculus [4] = organism: Oryctolagus cuniculus; assay: The compound was tested for antioxidant activity against serum thiobarbituric acid relative substances (TBARS),
Oryctolagus cuniculus [5] = assay: Total percent control of cholesterol after administration in rabbits.; design: concentration or dose not given beside the values
Oryctolagus cuniculus [6] = organism: Oryctolagus cuniculus; assay: Tested for antioxidant activity against serum thiobarbituric acid relative substances (TBARS),

Row | Compound | Activity (Oryctolagus cuniculus [1]) | Control (Oryctolagus cuniculus [2]) | Control (Oryctolagus cuniculus [3]) | Control (Oryctolagus cuniculus [4]) | Control (Oryctolagus cuniculus [5]) | Control (Oryctolagus cuniculus [6])
1 | COc1ccccc1[Si](C)(C)COc1cc(C(C)(C)C)c(O)c(C(C)(C)C)c1 | 235 mg/dL | 217% | 61% | 75% | 77% | –
2 | CC(C)(C)c1cc(OC[Si](C)(C)c2ccccc2)cc(C(C)(C)C)c1O | 165 mg/dL | 81% | 69% | 28% | 72% | –
3 | CC(C)(C)c1cc(OC[Si](C)(C)c2ccc(Cl)cc2)cc(C(C)(C)C)c1O | 247 mg/dL | 109% | 89% | 57% | 87% | –
4 | CC(C)(C)c1cc(SC[Si](C)(C)c2ccccc2)cc(C(C)(C)C)c1O | 119 mg/dL | 75% | 42% | – | 52% | 17%
5 | COc1ccc([Si](C)(C)COc2cc(C(C)(C)C)c(O)c(C(C)(C)C)c2)cc1 | 153 mg/dL | 123% | 66% | 60% | 54% | –
